Non-standard residues stand in square brackets, D forms with d. No end group written: not given here. Dhb = C/C=C(\N)C(=O)O; Dha = C=C(N)C(=O)O
Experiments:
M. luteus = assay: MIC determination in 96-well plates; format: cell-based, Micrococcus luteus; details: for MIC M. luteus: 96-well plate, bioassay medium, 5.0 × 10^5 CFU mL^−1, 37 °C, 24 h, OD600, n=3
Description: (§1) The CFPS system is for quick screening of potential antimicrobial lanthipeptides, and we then purified enough compounds of the screened nisin analogs for structure identification and activity assays. We prepared mLanAs for the novel lanthipeptides (RL6, RL8, RL13, and RL14) in E. coli (Table S2, Supporting Information) and removed their leader peptides in vitro, as it is more economical to mass produce targeted lanthipeptides using this previously reported method^[ ^4 ^] rather than to use CFPS to mass produce lanthipeptides. Nisin and most lanthipeptides are not pure products in the commercially available and standard products, they are a mixture of different dehydrating ingredients resulting from incomplete NisB catalysis. Therefore, we verified that the decisive antibacterial component in the currently commercially available nisin is the eightfold dehydrated component (Figure S5, Supporting Information). […] We treated the novel lanthipeptides with the thiol‐alkylating reagent N‐ethylmaleimide (NEM) to sequester any noncyclic Cys residues, and evaluated ring topology using LC‐MS (Figure S7, Supporting Information). […] We quantified these four novel lanthipeptides using the purified eight‐fold dehydrated component of nisin as a standard.
(§2) MICs were determined according to a previously described method^[ ^38 ^] with minor modifications. Briefly, the test medium for clinical strain species was MHB broth (BD Difco), LB broth was used for E. coli, and bioassay medium containing 1.2% tryptone, 0.75% yeast extract, 0.75% NaCl, 0.3% NaH2PO4, and 0.75% glucose was used for M. luteus. Bacteria were grown overnight to the early stationary phase and adjusted in corresponding culture medium to 5.0 × 10^5 CFU mL^−1 in the wells of 96‐well microtiter plates, mixed with varying concentrations of test compounds, and incubated at 37 °C for 24 h. Cell growth was evaluated by measuring the optical density at 600 nm, and the MIC was defined as the lowest compound concentration at which no bacterial growth was observed.
(§3) Table S3. MIC Values of Several Lanthipeptides Against Microorganisms
(§4) MIC* mg/L(μM) M. luteus E. faecalis S. aureus MRSA
(§5) Note: * The test lanthipeptide is a mixture of different dehydration molecules . Quantification of
(§6) lanthipeptides was performed using the eight-fold dehydrated molecules (n=3). The data

[1] = tested on: MRSA (clinical pathogenic strain); assay: MIC determination in 96-well plates; format: cell-based, methicillin‐resistant S. aureus; details: 96-well plate, MHB broth, 5.0 × 10^5 CFU mL^−1, 37 °C, 24 h, OD600, quantified as eight-fold dehydrated molecules, n=3
Description: as §1, §2, §3, §4, §5, §6

[2] = tested on: S. aureus (clinical pathogenic strain); assay: MIC determination in 96-well plates; format: cell-based, Staphylococcus aureus; details: 96-well plate, MHB broth, 5.0 × 10^5 CFU mL^−1, 37 °C, 24 h, OD600, quantified as eight-fold dehydrated molecules, n=3
Description: as §1, §2, §3, §4, §5, §6

[3] = tested on: E. faecalis (clinical pathogenic strain); assay: MIC determination in 96-well plates; format: cell-based, Enterococcus faecalis; details: for MIC E. faecalis: 96-well plate, MHB broth, 5.0 × 10^5 CFU mL^−1, 37 °C, 24 h, OD600, quantified as eight-fold dehydrated molecules, n=3
Description: as §1, §2, §3, §4, §5, §6

[4] = tested on: Micrococcus luteus NCIB 8166; assay: Agar diffusion bioassay of CFPS mixture; format: cell-based; details: agar diffusion method; CFPS reaction 6 h
Description: We evaluated the performance of our CFPS platform for nisin biosynthesis. Each plasmid (0.5 nmol L^−1) (pJL1‐nisZ, pET28a‐nisB, pET28a‐nisC, and pET28a‐nisP) was added into the CFPS platform and incubated for 6 h (Figure 1A). The 400 µL of reaction mixture was concentrated to 20 µL and the concentrated mixture was then detected by tandem mass spectrometry (LC‐MS‐MS). The results confirmed that fully modified nisin Z was produced in the CFPS mixture (Figure 1B).
These hybrid precursor peptides were then cloned into the pJL1 plasmid. Bagelicin, a nisin analog with antibacterial activity that was identified using a previously described in vivo screening system,^[ ^5 ^] was chosen as the positive control for validation. The pJL1‐nisZ plasmid in our CFPS platform was replaced with the hybrid precursor peptide plasmids (pRL1‐pRL18 and pJL1‐bagelicin). After incubation for 6 h, the bagelicin CFPS mixture (positive control) was analyzed by LC‐MS‐MS and bioassays.
The activity levels of nisin and new lanthipeptides were determined by a previously described agar diffusion method, with minor modifications.^[ ^37 ^] Briefly, a stock nisin solution 1000 IU mL^−1) was prepared by adding 50 mg of commercial nisin (10^6 IU g^−1; Sigma‐Aldrich, St. Louis, MO, USA) into 50 mL of sterile 0.02 mol L^−1 HCl. […]

E. coli DH5α = E. coli DH5α growth (OD600) in LB medium with EDTA and purified lanthipeptide; format: cell-based, Escherichia coli
Description: Figure 4 Screening of nisin mutants using the CFPS system. A) Schematic illustration of the screening for nisin mutants. B) Nisin and nisin mutants. Dha, dehydrolalanine; Dhb, dehydrobutyrine; Abu, 2‐aminobutyric acid. C) Heat‐map of antimicrobial activity of nisin mutants against E. coli in the second round of screening. After adding the CFPS mixture to E. coli and incubating for 8 h, the ΔOD600 value represents the OD600 of E. coli with added nisin mutant CFPS mixture minus the OD600 (control group) of E. coli with nisin CFPS mixture in the same plate. Yellow areas represent an inhibitory effect on E. coli. […] The test lanthipeptide is a mixture of different dehydration molecules, quantification of lanthipeptides was performed using the eightfold dehydrated molecules. […]
Next, to verify the reliability of the CFPS platform for screening, abundant lanthipeptides are required to characterize the structure and anti‐E. coli ability of the mutants. […] The structures were identified by LC‐MS‐MS (Figure 4B; Figure S6, Supporting Information) and the […] rings were detected by NEM reaction (Figure S7, Supporting Information). […]
Figure S8. OD600 of E. coli DH5α in LB Medium with Different Concentrations of EDTA and Nisin after 18 h of Co-culture (n=3) ΔOD600 indicates the difference between readings with different concentrations of blank media. […]

[5] = mixture of dehydration molecules quantified as eight-fold dehydrated molecules
[6] = value in parentheses, quantified as eight-fold dehydrated molecules
[7] = summary of Table S3 in the text

Row | Substance | MIC M. luteus (M. luteus; [5]) [µg/mL] | MIC M. luteus (M. luteus; [6]) [µM] | MIC MRSA [1] [µg/mL] | MIC MRSA ([1]; value in parentheses) [µM] | MIC S. aureus [2] [µg/mL] | MIC S. aureus ([2]; value in parentheses) [µM] | MIC E. faecalis [3] [µg/mL] | MIC E. faecalis ([3]; value in parentheses) [µM] | antibacterial activity of CFPS mixture on M. luteus plate (in words) [4] | antibacterial activity against M. luteus (in words) (M. luteus; [7]) | antibacterial activity against E. faecalis (in words) [3, 7] | inhibition of E. coli DH5α growth with EDTA (OD600) (E. coli DH5α; 320 μM EDTA, nisin Z 24, 48, 96 μM, 18 h co-culture, n=3 (Figure S8)) | inhibition of E. coli DH5α growth at 20-fold the reported nisin concentration (E. coli DH5α; 18 h co-culture (Figure S8))
1 | IT SVSLC TPGCKTGALMGCNMKTAS CGCHVHVSK (bicyclic or more) [RL6, novel lanthipeptide, nisin analog, core peptide from Leuconostoc gelidum] | 0.12 | 0.037 | > 250 | > 76.17 | > 250 | > 76.17 | 250 | 76.17 | – | – | – | – | –
2 | VT SISLC TPGCKTGILMT CAIKTAT CGCHF [Bagelicin] | – | – | – | – | – | – | – | – | contained anti‐M. luteus activity | – | – | – | –
3 | IT SKSLC TPGCVTGVLMGCALKTIT CNC SVGIGKK (bicyclic or more) [RL14, novel lanthipeptide, nisin analog, core peptide from Enterococcus rotai/Enterococcus moraviensis] | 0.015 | 0.0045 | 250 | 74.75 | 250 | 74.75 | 62.5 | 18.69 | – | outperforming nisin | outperforming nisin | – | –
4 | Nisin A: commercialized nisin, class I lanthipeptide, food preservative (I[Dhb]SI[Dha]LCTPGCKTGALMGCNMKTATCHCSIHV[Dha]K; cysteine pairing not given here; also: lanthipeptide thioether crosslinks and dehydrated residues, positions not given here; UniProt P13068 24-57, looked up) [reference compound] | 0.06 | 0.018 | 125 | 37.27 | 125 | 37.27 | 250 | 74.53 | – | – | – | – | –
5 | Nisin Z: type I lanthipeptide nisin Z, synthesized by CFPS or from mLanA expressed in E. coli (I[Dhb]SI[Dha]LCTPGCKTGALMGCNMKTATCNCSIHV[Dha]K; cysteine pairing not given here; also: lanthipeptide thioether crosslinks and dehydrated residues, positions not given here; UniProt P29559 24-57, looked up) [reference compound] | 0.12 | 0.036 | 125 | 37.52 | 250 | 75.05 | 250 | 75.05 | obvious zone of inhibition | – | – | obvious | did not exhibit
6 | VT SKSLC TPGCKTGILQT CAIKSAT CGC SIHIGK (bicyclic or more) [RL8, novel lanthipeptide, nisin analog, core peptide from Bacillus cereus] | 0.24 | 0.073 | > 250 | > 76.52 | > 250 | > 76.52 | 250 | 76.52 | – | – | – | – | –
7 | IT SKSLC TPGCKTGALMT CPIKTAT CGCHFGN (bicyclic or more) [RL13, novel lanthipeptide, nisin analog, core peptide from Streptococcus equinus] | 0.24 | 0.077 | > 250 | > 80.8 | > 250 | > 80.8 | 250 | 80.8 | – | – | – | – | –
